How the values were obtained:
[1] = system: Telomere G1 (DNA, G4) TAGGGTTAGGGTTAGGGTTAGGG; test: ITC; conditions: K+ (50 mM KH2PO4-K2HPO4); potassium phosphate buffer pH 7.0, 25 °C, dilute condition without PEG200
[2] = system: c-myc (DNA, G4) TGAGGGTGGGGAGGGTGGGGAA; test: ITC; conditions: K+ (50 mM KH2PO4-K2HPO4); potassium phosphate buffer pH 7.0, 25 °C, dilute condition without PEG200
[3] = system: Telomere G1 (DNA, G4) TAGGGTTAGGGTTAGGGTTAGGG; test: CD melting at 288 nm; conditions: 100 mM KCl, 50 mM Tris-HCl pH 7.4, 4.5 μM compound, 1.5 μM DNA
[4] = system: c-myc (DNA, G4) TGAGGGTGGGGAGGGTGGGGAA; test: CD melting at 263 nm; conditions: 5 mM KCl; 50 mM Tris-HCl pH 7.4; 4.5 μM compound, 1.5 μM DNA

Ka [1] [M⁻¹] | Ka [2] [M⁻¹] | ΔTm ([3]; derived from two Tm (73.5, 65)) [°C] | ΔTm [4] [°C] | ΔTm ([3]; derived from two Tm (70.5, 65)) [°C] | ΔTm ([3]; derived from two Tm (79, 65)) [°C] | SMILES
1.5e+06 | 6.2e+06 | 8.5 | > 15 |  |  | CN1CCCNC(=O)CC2(CCCCC2)CC(=O)NCCCN(C)CCCN2C(=O)c3ccc4c5c(ccc(c35)C2=O)C(=O)N(CCC1)C4=O
3.4e+06 | 1.1e+06 |  | > 15 | 5.5 |  | CN1CCCNC(=O)CCCC(=O)NCCCN(C)CCCN2C(=O)c3ccc4c5c(ccc(c35)C2=O)C(=O)N(CCC1)C4=O
2.2e+06 | 2.4e+06 |  | > 15 |  | 14 | CN1CCCNC(=O)c2cccc(c2)C(=O)NCCCN(C)CCCN2C(=O)c3ccc4c5c(ccc(c35)C2=O)C(=O)N(CCC1)C4=O
